Like-named read-outs stand apart in the source and are kept apart here.

The nature of data set [1]: Observed stability of the isolated compounds. In kind it is physicochemical. The text has this: The shift values of the terminal heterocycle were in very good agreement with literature data from similar natural products, bearing a γ-hydroxy-γ-butenolide moiety. Analogous to compound 7, the Δ^8,10 double bond of 8 was defined as E (C-9: δC 16.2 and NOESY cross correlations depicted in Figure 4). Likewise, based on the same observed diagnostic NOE crosspeaks for the indene system (Figure S43B) and for biogenetic reasons, we propose that 8 is 11R*, 15R*, 18S*, 20R*, 21S* configured. […] Therefore, we integrated computational methods and aimed for quantum-mechanical predictions of ^1H and ^13C NMR chemical shifts of a 1S- and a 1R-configured version of 8.
All tests were performed with 1 as a pre-screening for the scaffold’s activity within their respective assays. Based on the results from the pre-screening, the biological evaluation of the structural congeners was planned. Unfortunately, an instability phenomenon affected the purity of the isolated compounds. Due to the limited amounts of the isolated compounds, repurification would not have yielded the required sample quantity for the assays. This reality precluded biological evaluation of the structural congeners 3–8.

Data set [2] concerns L-6 cells (rat skeletal myoblasts). The data set is described as follows: In vitro cytotoxicity assay with L-6 cells (resazurin). In kind it is cell-based. The following applies: L6, 70 h, read-out: IC50 L6. How it is done: In vitro cytotoxicity assay with L-6 cells. Assays were performed in 96-well microtiter plates, each well containing 100 μL of RPMI 1640 medium supplemented with 1% L-glutamine (200 mM) and 10% fetal bovine serum, and 4000 L-6 cells (a primary cell line derived from rat skeletal myoblasts). Serial drug dilutions ranged from 100 to 0.002 μg/mL. After 70 h of incubation, the plates were inspected under an inverted microscope to assure growth of the controls and sterile conditions. 10 μL of resazurin was then added to each well and the plates were incubated for another 2 h. […] Podophyllotoxin (Sigma P4405) was used as control (IC50 0.011 ± 0.005 μM).
A general note: The colour change of resazurin is a common sign of viable cells or microbes.

Data set [3] has as its system T. cruzi Tulahuen strain C2C4. The data set is described as follows: Activity against T. cruzi in L-6 cells (beta-galactosidase/CPRG). The format is cell-based, Trypanosoma cruzi. To be noted: Tulahuen C2C4 in L-6 cells, Table 2 values are means of two independent assays. How it is done: Activity against T. cruzi. Rat skeletal myoblasts (L-6 cells) were seeded in 96-well microtiter plates at 2000 cells/well in 100 μL RPMI 1640 medium with 10% FBS and 2 mM L-glutamine. After 24 h, the media in each well was removed and replaced with 100 μL of fresh media containing 5000 trypomastigote forms of T. cruzi Tulahuen strain C2C4 containing the β-galactosidase (lacZ) gene. After 48 h, the media was removed from the wells again, and this time, replaced by 100 μL fresh medium with or without 1 from 100 to 0.002 μg/mL. After 96 h of incubation, the plates were inspected under an inverted microscope to assess growth and sterility of the controls. Then, the substrate CPRG/Nonidet (50 μL) was added to all wells. A color reaction developed within 2–6 h and could be read photometrically at 540 nm.

In data set [4] the test system is P. falciparum NF54 strain. The data set is described as follows: In vitro activity against erythrocytic stages of P. falciparum (3H-hypoxanthine incorporation assay). In kind it is cell-based. To be noted: Plasmodium falciparum, Table 2 values are means of two independent assays. How it is done:
Activity against P. falciparum. In vitro activity against erythrocytic stages of P. falciparum was determined using a ^3H-hypoxanthine incorporation assay against the drug-sensitive NF54 strain [76]. Compounds were dissolved in DMSO at 10 mg/mL and further diluted in medium before being added to parasite cultures incubated in RPMI 1640 medium without hypoxanthine, supplemented with HEPES (5.94 g/L), NaHCO3 (2.1 g/L), neomycin (100 U/mL), Albumax^R (5 g/L) and washed human red cells A^+ at 2.5% haematocrit (0.3% parasitaemia). Serial drug dilutions ranged from 100 to 0.002 μg/mL. The 96-well plates were incubated in a humidified atmosphere at 37 °C; 4% CO2, 3% O2, 93% N2. After 48 h 50 μL of ^3H-hypoxanthine (=0.5 μCi) was added to each well of the plate. The plates were incubated for a further 24 h under the same conditions. The plates were then harvested with a Betaplate™ cell harvester (Wallac, Zurich, Switzerland) and the red blood cells were transferred onto a glass fiber filter then washed with distilled water. The dried filters were inserted into a plastic foil with 10 mL of scintillation fluid and counted in a Betaplate™ liquid scintillation counter (Wallac, Zurich, Switzerland). IC50 values were calculated from sigmoidal inhibition curves by linear regression using Microsoft Excel. Chloroquine diphosphate (Sigma C6628) was used as control (IC50 0.006 ± 0.002 μM).

Data set [5] relates to L. donovani strain MHOM/ET/67/L82 axenic amastigotes. The data set is described as follows: Activity against L. donovani axenic amastigotes (resazurin). In kind it is cell-based, Leishmania donovani. The following applies: in vitro, Table 2 values are means of two independent assays. How it is done:
Activity against L. donovani axenic amastigotes. Amastigotes of L. donovani strain MHOM/ET/67/L82 were grown in axenic culture at 37 °C in SM medium at pH 5.4 supplemented with 10% heat-inactivated fetal bovine serum under an atmosphere of 5% CO2 in air. 100 µL of culture medium with 10^5 amastigotes from axenic culture with or without a serial drug dilution were seeded in 96-well microtiter plates. Serial drug dilutions ranged from 100 to 0.002 μg/mL. After 70 h of incubation, the plates were inspected under an inverted microscope to assure growth of the controls and sterile conditions.

Data set [6] relates to Trypanosoma brucei rhodesiense STIB900. The data set is described as follows: Activity against Trypanosoma brucei rhodesiense STIB900 (resazurin). The following applies: Table 2 values are means of two independent assays.
Experimental: Activity against Trypanosoma brucei rhodesiense STIB900. […] Minimum Essential Medium (50 µL) supplemented with 25 mM HEPES, 1 g/L additional glucose, 1% MEM non-essential amino acids (100×), 0.2 mM 2-mercaptoethanol, 1 mM Na-pyruvate and 15% heat inactivated horse serum was added to each well of a 96-well microtiter plate. Serial drug dilutions ranging from 100 to 0.002 μg/mL were prepared. Then, 4 × 10^3 bloodstream forms of T. b. rhodesiense STIB 900 in 50 µL were added to each well and the plate was incubated at 37 °C under a 5% CO2 atmosphere for 70 h. 10 µL of a resazurin solution (resazurin, 12.5 mg in 100 mL double-distilled water) was then added to each well and incubation continued for a further 2–4 h [70]. The plates were read with a Spectramax Gemini XS microplate fluorometer (Molecular Devices Cooperation, Sunnyvale, CA, USA) using an excitation wavelength of 536 nm and an emission wavelength of 588 nm. Data were analyzed using Softmax Pro (Molecular Devices Cooperation, Sunnyvale, CA, USA), which calculated IC50 values by linear regression [71] and 4-parameter logistic regression from the sigmoidal dose inhibition curves.

Consider Oxoircinianin [compound 3], for which the “Stability of isolated compound” value in data set [1] is on record as “unstable”.
Regarding `CC(=CC1C=C(C)C2CCC(C)C2C12OC(=O)C(C)=C2O)CCCC1=CC(=O)OC1O` (stereo not drawn) [compound 8, Ircinianin lactone C], in data set [1] (rapid decomposition after the NMR measurements), the “Stability of isolated compound” value is “unstable”.
Ircinianin lactone A [compound 6]: the “Stability of isolated compound” value in data set [1] was “unstable”.
Still for that read-out and setting: with Ircinianin lactone B [compound 7] the entry was “unstable”.
With `COc1cc([C@@H]2c3cc4c(cc3[C@H](O)[C@H]3COC(=O)[C@H]23)OCO4)cc(OC)c1OC` [Podophyllotoxin, reference compound], the IC50 (as a rule, the concentration needed to halve the response being measured) in data set [2] is 11 ± 5 nM.
Turning to `O=C(Cn1ccnc1[N+](=O)[O-])NCc1ccccc1` [benznidazole, Benznidazole, reference compound], the IC50 in data set [3] (Trypanosoma cruzi, TULAHUEN, L6, in vitro) worked out at 2310 ± 1150 nM; in data set [3] (in vitro) it was 3360 nM.
Consider `CCN(CC)CCCC(C)Nc1ccnc2cc(Cl)ccc12` (stereo not drawn) [chloroquine, Chloroquine diphosphate, reference compound], for which, in data set [4], the IC50 worked out at 6 nM.
Turning to `CCCCCCCCCCCCCCCCOP(=O)([O-])OCC[N+](C)(C)C` [miltefosine, Miltefosine], the IC50 in data set [5] (Leishmania donovani) is 650 ± 270 nM; in data set [5], 486 nM.
Turning to `Nc1nc(N)nc(Nc2ccc([As]3SCC(CO)S3)cc2)n1` (stereo not drawn) [melarsoprol, Melarsoprol, reference compound], the IC50 in data set [6] (Trypanosoma brucei, RHODESIENSE|STIB900, read-out: IC50 T. brucei rhodesiense, in vitro, STIB900 bloodstream forms) worked out at 13 ± 6 nM; in data set [6] (read-out: IC50 T. brucei rhodesiense, in vitro, STIB900 bloodstream forms), 20 nM.
